Data as given in article doi:10.1101/2021.04.29.441652v1 (biorxiv, 2021).

Each compound was assayed against human σ2 receptor (TMEM97) (Homo sapiens, UniProt Q5BJF2) (assay: biochemical). Details: read-out: % of control remaining.
Sequence of human σ2 receptor (TMEM97) (Q5BJF2 whole entry): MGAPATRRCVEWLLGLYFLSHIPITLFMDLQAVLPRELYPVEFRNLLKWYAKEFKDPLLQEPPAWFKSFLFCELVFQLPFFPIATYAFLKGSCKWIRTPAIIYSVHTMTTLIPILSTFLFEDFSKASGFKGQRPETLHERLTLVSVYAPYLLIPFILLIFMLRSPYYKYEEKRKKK
Format: Expi293 membranes
`C[C@H](Cn1ncc2ccccc2c1=O)N[C@@H](C)Cc1ccc2c(c1)CCCC2` [ZINC000657934399] was tested, and the remaining activity at 1 µM was 13.3%. In the case of `C[C@H](Cn1cncn1)N[C@@H]1CCN(c2ccccc2C(F)(F)F)C1` [ZINC000657977970], the remaining activity at 1 µM is reported as 83.1%. Compound `COc1ccc([C@@H](C)N[C@H](CO)C2CCC2)cc1Br` [ZINC000658086473] has a remaining activity at 1 µM of 42.3%. `CCOc1cc2c(cc1NC(=O)C[C@@H]1NCc3ccccc31)O[C@@H](C)C2` [ZINC000659267272] was tested, and the remaining activity at 1 µM was 101%. `CNC[C@H](C)NC(=O)C(=O)NCc1ccc(N2CCO[C@@H](C)C2)nc1` [ZINC000659691253] showed a remaining activity at 1 µM of 82.1%. With `O=C(CN1CC2CC1(c1ccccc1)C2)NC[C@@H]1CCCO1` [ZINC000662335416] the remaining activity at 1 µM was 122%. In the case of `CN(CC(=O)Nc1c(Cl)cccc1Cl)C[C@@H]1CC1(C)C` [ZINC000662345330], the remaining activity at 1 µM is reported as 42.3%. With `COc1cc(NC(=O)CC2(N)CC2)cc(OC)c1Br` [ZINC000662800454] the remaining activity at 1 µM was 106%. Compound `O=C(N[C@H]1CCOC2(CCC2)C1)N1CCC(N2CC[C@@H](O)C2)CC1` [ZINC000664479370] has a remaining activity at 1 µM of 103%. For `CN(C)Cc1ccc(-c2cscc2CCO)cc1F` [ZINC000665143541], the remaining activity at 1 µM was 108%. `O=C(Nc1cnn(CC2CC2)c1)C(=O)N1CCC[C@H]([C@@H]2CCNC2)C1` [ZINC000667676804] gave a remaining activity at 1 µM of 94.4%. For `Cc1ccccc1-n1cc(CN2CCC[C@@H]([C@H]3CCCCO3)C2)nn1` [ZINC000668631550], the remaining activity at 1 µM was 58.4%. Compound `OC[C@H](N[C@H]1Cc2[nH]c3ccccc3c2C1)C1CCCCC1` [ZINC000669616349] has a remaining activity at 1 µM of 56.6%. For `C[C@@H](NC(=O)C(=O)NCCCN1CCC[C@H](C(N)=O)C1)C1CCC1` [ZINC000671981913], the remaining activity at 1 µM was 106%. With `C[C@H]1[C@H](N2CCCC2)CCN1Cc1cn2cc(Br)ccc2n1` [ZINC000672564445] the remaining activity at 1 µM was 69.7%. With `O=C(NCCCC1CC1)C(=O)NC1CCN([C@H]2CCC[C@@H]2O)CC1` [ZINC000673584800] the remaining activity at 1 µM was 110%. Compound `Clc1ccccc1Cn1cc(CN2CCC[C@@H]2c2ccc[nH]2)cn1` [ZINC000676461131] has a remaining activity at 1 µM of 63.8%. Work on `c1ccc(-n2cncn2)c(CN2CCC[C@H](N3CCCC3)CC2)c1` [ZINC000678272880] yielded a remaining activity at 1 µM of 55.7%. `CN1CC[C@H]2CCN(C(=O)C(=O)Nc3cnc4c(c3)COCC4)[C@@H]2C1` [ZINC000679371269] gave a remaining activity at 1 µM of 114%. `COCCOCc1cccc(NC(=O)NCC2(C)CCN(C)CC2)c1` [ZINC000679555790] gave a remaining activity at 1 µM of 103%. `Fc1cc(Br)cnc1N1CCN(CCc2cccs2)CC1` [ZINC000681377109] was tested, and the remaining activity at 1 µM was 114%. `CC[C@@]1(NCC(=O)Nc2ccc(C)cc2Br)CCOC1` [ZINC000683045155] showed a remaining activity at 1 µM of 108%. `Clc1ccccc1Cn1cc(CNc2nc3ccccc3[nH]2)cn1` [ZINC000683721842] showed a remaining activity at 1 µM of 99.8%. `CCN(CC)c1ncc(CN2CC(C(C)C)C2)s1` [ZINC000684407814] was tested, and the remaining activity at 1 µM was 70.6%. `CC(C)C1CN(C[C@@H](O)COC(c2ccccc2)c2ccccc2)C1` [ZINC000684607185] was tested, and the remaining activity at 1 µM was 17.3%. Work on `Brc1ccccc1-n1cc(CN2CC[C@@H]3CCC[C@@H]32)nn1` [ZINC000685844120] yielded a remaining activity at 1 µM of 51.3%. `CCN1CCN(CCNC(=S)N[C@H](C)c2cccs2)CC1` [ZINC000726467110] showed a remaining activity at 1 µM of 79.5%. In the case of `O[C@@H](CN1CCN(c2ccc(-c3nn[nH]n3)cc2F)CC1)C1CC1` [ZINC000738383044], the remaining activity at 1 µM is reported as 118%. `O[C@@H](CN1CC[C@@H](CSc2ccccc2)C1)c1c(F)cccc1F` [ZINC000743860012] showed a remaining activity at 1 µM of 23.7%. With `CN(C(=O)CCn1cnc2c1c(=O)n(C)c(=O)n2C)c1cn[nH]c1` [ZINC000748395040] the remaining activity at 1 µM was 108%. `Cc1nn(Cc2ccc(F)cc2)c(Cl)c1CNC[C@@]1(O)CCN(C)C1` [ZINC000762555244] was tested, and the remaining activity at 1 µM was 84.1%. `Cc1ccc2c(c1)CC[C@H]2N[C@@H](CO)Cc1ccccc1` [ZINC000766031584] gave a remaining activity at 1 µM of 63.2%. For `C[C@H](CCN1C(=O)c2ccccc2C1=O)NC[C@@H](O)c1c(F)cccc1F` [ZINC000769519341], the remaining activity at 1 µM was 91.7%. `O=C(NC1CCCCC1)C(=O)NC1CCN(C[C@H]2CCCO2)CC1` [ZINC000774469834] was tested, and the remaining activity at 1 µM was 83.3%. Compound `COc1ccc([C@H]2CCN(C[C@@H](O)c3ccc(F)cc3Cl)C2)cc1` [ZINC000775588849] has a remaining activity at 1 µM of 39%. With `O=C1NCCC[C@@H]1N1CC[C@@](O)(c2ccc(F)cc2)C1` [ZINC000777733869] the remaining activity at 1 µM was 108%. Work on `O=[N+]([O-])c1cccc([C@H](O)CN2CC(Cc3cccc(C(F)(F)F)c3)C2)c1` [ZINC000792998860] yielded a remaining activity at 1 µM of 3.8%. `O[C@H](CN[C@@H]1CCc2ccccc2OC1)COc1c(Cl)cccc1Cl` [ZINC000801571276] showed a remaining activity at 1 µM of 37.6%. With `Cc1ccc(C2=NO[C@@H](CNC(=O)N3CC[C@H](N4CCCC4)C3)C2)cc1C` [ZINC000802379169] the remaining activity at 1 µM was 89.7%. Work on `O=C(NC[C@@H]1CN2CCC[C@@H]2CO1)C(=O)N[C@@H]1CC[C@H]2CCC[C@@H]2C1` [ZINC000804054066] yielded a remaining activity at 1 µM of 90%. `COc1ccc(C(=O)N2CC[C@H](N3CCCC3)[C@@H]2C)nc1Cl` [ZINC000805335094] showed a remaining activity at 1 µM of 133%. `CN1CCN(CCNC(=O)C(=O)NC[C@H]2CCC=CO2)CC1(C)C` [ZINC000805503179] was tested, and the remaining activity at 1 µM was 105%. Work on `CC[C@@H](CN1CCCC1)NC(=O)C(=O)NC1COC(C)(C)OC1` [ZINC000806327364] yielded a remaining activity at 1 µM of 106%. In the case of `Cc1ccc(N2CCN(C(=O)C(=O)N[C@@H]3CN(C4CC4)C[C@@H]3C)CC2)cc1` [ZINC000809405032], the remaining activity at 1 µM is reported as 99.4%. Work on `C[C@H](NC(=O)c1ccc2[nH]c(=O)c(=O)[nH]c2c1)[C@H](O)c1ccccc1` [ZINC000813849560] yielded a remaining activity at 1 µM of 108%. With `CC(C)(C)OC(=O)N1CCC[C@@](C)(CNC[C@@H](O)c2c(F)cccc2F)C1` [ZINC000819225653] the remaining activity at 1 µM was 17.6%. `C[C@H]1[C@H](N(C)C)CCN1c1snc(Cl)c1C#N` [ZINC000820594289] gave a remaining activity at 1 µM of 104%. Work on `O=C([C@H](O)c1cccc([N+](=O)[O-])c1)N1CC[C@H](N2CCCC2)C1` [ZINC000825615260] yielded a remaining activity at 1 µM of 104%. For `CS[C@@H]1CCN(C[C@@H](O)c2ccccc2C(F)(F)F)C1` [ZINC000830877226], the remaining activity at 1 µM was 78.8%. Work on `C[C@@H]1CCC[C@H](CCN2CCC([C@H](O)c3ncc[nH]3)CC2)C1` [ZINC000839577413] yielded a remaining activity at 1 µM of 28.7%. Work on `OC[C@@H](CNC[C@H](O)c1ccc(F)c(Br)c1)CC1CCCC1` [ZINC000843092160] yielded a remaining activity at 1 µM of 16.2%. Compound `Fc1ccc(C2OCCO2)c(Cl)c1CNC1CC2(CCC2)C1` [ZINC000846106280] has a remaining activity at 1 µM of 43.6%. In the case of `CN1CC[C@]2(CCN(C(=O)C(=O)Nc3cccc4nonc34)C2)C1` [ZINC000847525041], the remaining activity at 1 µM is reported as 59.3%. In the case of `C[C@H]1CN/C(=N/CCCc2c(Cl)cccc2Cl)N1` [ZINC000849049798], the remaining activity at 1 µM is reported as 8.7%. Work on `CON(C)CCNC(=O)C(=O)Nc1ccc2c(c1)C(=O)N(C)C2=O` [ZINC000850493342] yielded a remaining activity at 1 µM of 136%. For `Fc1ccc(NC(=S)NC2CCN([C@H]3CCOC3)CC2)cc1` [ZINC000853031922], the remaining activity at 1 µM was 115%. `C[C@H](Nc1nc(N)nc(N)n1)c1ccccc1C(F)(F)F` [ZINC000858362097] gave a remaining activity at 1 µM of 142%. For `Cc1cc(N(C)C)ccc1CNC(=O)C(=O)NC[C@@H]1COCCN1` [ZINC000861751799], the remaining activity at 1 µM was 106%. `CCC1(N2CCOCC2)CCN(C(=O)C2=NN(C)C(=O)CC2)CC1` [ZINC000863492725] gave a remaining activity at 1 µM of 179%. With `CN1CCN(C2CCN(c3nc(N)c4ccccc4n3)CC2)CC1` [ZINC000866213504] the remaining activity at 1 µM was 204%. For `C[C@H]1CCC[C@H](NC(=O)C(=O)N2CCC(N3CCN(C)CC3)CC2)CC1` [ZINC000875242850], the remaining activity at 1 µM was 76.2%. Work on `O[C@@H](CN1CC[C@@H](c2ccccc2F)C1)CC1(O)CCCCC1` [ZINC000878084395] yielded a remaining activity at 1 µM of 27.7%. For `NC(=O)C1(N2CCCCC2)CCN(CC(=O)NCC2CCC2)CC1` [ZINC000880249690], the remaining activity at 1 µM was 113%. With `C=CCC1(O)CCN([C@H](C)C(=O)N[C@@H](C)c2ccc(Cl)cc2)CC1` [ZINC000886762228] the remaining activity at 1 µM was 110%. Work on `Cc1cc(C(=O)CN2CC[C@@H]([C@H]3CCCO3)C2)c(C)n1C1CC1` [ZINC000886836194] yielded a remaining activity at 1 µM of 24.1%. `CO[C@@H]1CN(C(=O)NCc2ccnc(N3CCN(C)CC3)c2)CCO1` [ZINC000891830660] gave a remaining activity at 1 µM of 116%. `CC[C@H](CO)N1CCN(c2cc(Cl)c3cnn(C)c3n2)CC1` [ZINC000892713700] gave a remaining activity at 1 µM of 99.5%. In the case of `Cc1cccc2sc(N3CCN(CCO)[C@H](C)C3)nc12` [ZINC000893277758], the remaining activity at 1 µM is reported as 95.1%. `CC[C@@H](C)N1CCN(c2nc(N)nc(C(F)(F)C(F)(F)F)n2)CC1` [ZINC000894101819] gave a remaining activity at 1 µM of 35%. `CCC(C)(C)N1CCN(c2nc(N)nc(C(F)(F)C(F)(F)F)n2)CC1` [ZINC000894427229] was tested, and the remaining activity at 1 µM was 38.7%. `CCC(C)(C)N1CCN(c2cc(C(F)F)ncn2)CC1` [ZINC000894429059] was tested, and the remaining activity at 1 µM was 33.6%. Compound `C[C@@H]1CCCN1CCNC(=O)N1CCC[C@@H]1[C@@H]1CCCC[C@@]1(C)O` [ZINC000897504395] has a remaining activity at 1 µM of 90.9%. `FC(F)(F)c1ccnc([C@H]2CCN(C[C@@H]3C[C@H]3c3ccccc3)C2)n1` [ZINC000897616680] was tested, and the remaining activity at 1 µM was 5.1%. `O=C(CN[C@H]1CCNC12CCC2)NCCN1CCc2ccccc21` [ZINC000903470913] was tested, and the remaining activity at 1 µM was 92.2%. `C[C@@H]1CN(C(=O)C2CN(C)CCN(C)C2)CC(C)(C)O1` [ZINC000906421824] was tested, and the remaining activity at 1 µM was 127%. `CS(=O)(=O)N1CC(C(=O)N2CC(=O)N(CC(F)(F)F)C2)C1` [ZINC000907721339] gave a remaining activity at 1 µM of 119%. In the case of `Cc1ccc(NC(=O)C23CCC(CC2)N3)cc1[N+](=O)[O-]` [ZINC000911907143], the remaining activity at 1 µM is reported as 93.1%. `CC(C)(CN1C(=O)N2CCC[C@@H]3C[C@@]32C1=O)N1CCc2ccccc2C1` [ZINC000924470947] was tested, and the remaining activity at 1 µM was 45.5%. In the case of `CCn1ncc2c1CCC[C@@H]2N[C@@H](C)Cc1ccccn1` [ZINC000925887162], the remaining activity at 1 µM is reported as 27.4%.
